Reference: the supplement of paper PMC10307832

Key:
Assay in all cases: relative viability (nuclei count vs DMSO), 5 days (fraction); higher = more cells survive
[1] = compound: C(C(=O)C(=O)O)Br [Bromopyruvate] + Nc1nc2[nH]cc(CCc3ccc(C(=O)N[C@@H](CCC(=O)O)C(=O)O)cc3)c2c(=O)[nH]1 [Pemetrexed] (partner 0.2 µM)
Method in brief: (§1)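 For relative viability, nuclei counts in treated wells were divided by those in vehicle wells. Lung cancer cell lines had been pin-tool dosed in 1536-well plates the day after seeding and cultured for 5 days, then fixed and stained in one step (final 0.05% Triton X-100, 1% formaldehyde, 1 ug/ml Hoechst) and imaged at 4×. Doses were one drug alone or a fixed anchor-drug dose plus five library-drug doses (not always all listed) in √10 steps, and values are duplicate-plate medians.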

[2] = compound: C(C(=O)C(=O)O)Br [Bromopyruvate] + C[C@]1(O)C[C@@H](c2nc(-c3ccc4ccc(-c5ccccc5)nc4c3)c3c(N)nccn32)C1 [Linsitinib] (partner 1 µM)
Method in brief: as §1

[3] = compound: C(C(=O)C(=O)O)Br [Bromopyruvate] + Cc1nc(Nc2ncc(C(=O)Nc3c(C)cccc3Cl)s2)cc(N2CCN(CCO)CC2)n1 [Dasatinib] (partner 0.075 µM)
Method in brief: as §1

Bicalutamide + Lapatinib = compound: CC(O)(CS(=O)(=O)c1ccc(F)cc1)C(=O)Nc1ccc(C#N)c(C(F)(F)F)c1 [Bicalutamide] + CS(=O)(=O)CCNCc1ccc(-c2ccc3ncnc(Nc4ccc(OCc5cccc(F)c5)c(Cl)c4)c3c2)o1 [Lapatinib] (partner 2 µM)
Method in brief: as §1

Cell Line | relative viability ([1]; first compound 1 µM) | relative viability ([1]; first compound 3.162 µM) | relative viability ([1]; first compound 10 µM) | relative viability ([1]; first compound 31.62 µM) | relative viability ([1]; first compound 100 µM) | relative viability ([2]; first compound 1 µM) | relative viability ([2]; first compound 3.162 µM) | relative viability ([2]; first compound 10 µM) | relative viability ([2]; first compound 31.62 µM) | relative viability ([2]; first compound 100 µM) | relative viability ([3]; first compound 1 µM) | relative viability ([3]; first compound 3.162 µM) | relative viability ([3]; first compound 10 µM) | relative viability ([3]; first compound 31.62 µM) | relative viability ([3]; first compound 100 µM) | relative viability (Bicalutamide + Lapatinib; first compound 0.08 µM) | relative viability (Bicalutamide + Lapatinib; first compound 0.253 µM) | relative viability (Bicalutamide + Lapatinib; first compound 0.8 µM) | relative viability (Bicalutamide + Lapatinib; first compound 2.53 µM)
LK-2 | 0.346 | 0.23 | 0.312 | 0.237 | 0.261 | 0.474 | 0.674 | 0.541 | 0.509 | 0.524 | 0.284 | 0.328 | 0.322 | 0.336 | 0.317 | 0.901 | 0.852 | 1.11 | 0.898
NCI-H2228 | 0.343 | 0.339 | 0.337 | 0.357 | 0.341 | 0.81 | 0.837 | 0.693 | 0.535 | 0.505 | 0.464 | 0.532 | 0.52 | 0.455 | 0.633 | 0.707 | 1.04 | 1.23 | 1.02
NCI-H322M | 0.614 | 0.663 | 0.592 | 0.585 | 0.637 | 0.869 | 0.913 | 0.981 | 0.908 | 0.891 | 0.253 | 0.258 | 0.248 | 0.235 | 0.259 | 0.576 | 0.602 | 0.664 | 0.572
NCI-H1975 | 0.276 | 0.3 | 0.292 | 0.326 | 0.292 | 0.877 | 1.12 | 1.16 | 0.999 | 0.853 | 0.369 | 0.4 | 0.349 | 0.442 | 0.344 | 0.851 | 0.854 | 1.12 | 0.785
NCI-H1944 | 0.576 | 0.707 | 0.625 | 0.656 | 0.63 | 1.27 | 1.31 | 1.19 | 1.12 | 1.22 | 0.235 | 0.255 | 0.213 | 0.196 | 0.205 | 0.857 | 0.607 | 0.899 | 0.904
LU99A | 0.178 | 0.21 | 0.169 | 0.202 | 0.165 | 0.567 | 0.563 | 0.552 | 0.614 | 0.511 | 0.515 | 0.568 | 0.575 | 0.552 | 0.534 | 0.958 | 0.847 | 1.28 | 0.798
NCI-H2405 | 1.14 | 1.06 | 1.24 |  | 0.728 | 0.938 | 0.948 | 1.11 | 0.727 | 0.907 | 0.242 | 0.218 | 0.209 | 0.19 | 0.231 | 1.2 | 1.01 | 1.16 | 0.852
NCI-H2023 | 0.231 | 0.246 | 0.273 | 0.205 | 0.187 | 0.664 | 0.72 | 0.682 | 0.752 | 0.605 | 0.398 | 0.566 | 0.661 | 0.573 | 0.562 | 0.727 | 0.866 | 1.21 | 0.648
HCC-44 | 0.621 | 0.591 | 0.555 | 0.616 | 0.638 | 0.612 | 0.662 | 0.729 | 0.753 | 0.713 |  |  |  |  |  | 1.05 | 0.987 | 1.12 | 1.05
NCI-H1299 |  |  |  |  |  | 0.994 | 1.01 | 1.04 | 1.02 | 0.968 |  |  |  |  |  | 0.92 | 0.966 | 0.971 | 0.929
LCLC-103H | 0.468 | 0.465 | 0.472 | 0.446 | 0.48 | 1.28 | 1.07 | 1 | 1.08 | 1.14 | 0.479 | 0.494 | 0.413 | 0.447 | 0.54 |  |  |  | 
ABC-1 |  |  |  |  |  | 0.767 | 1.05 |  | 0.693 | 0.753 | 0.692 | 0.492 | 0.62 | 0.584 | 0.348 | 1.45 | 1.06 | 1.26 | 1.28
NCI-H1650 | 0.39 | 0.435 | 0.37 | 0.406 | 0.266 |  |  |  |  |  | 0.309 | 0.268 | 0.289 | 0.395 | 0.211 | 0.905 | 0.655 | 1.09 | 0.74
ChaGo-K-1 | 0.266 | 0.254 | 0.261 | 0.27 | 0.259 |  |  |  |  |  | 0.59 | 0.607 | 0.604 | 0.586 | 0.589 |  |  |  | 
NCI-H1648 | 0.661 | 0.813 | 0.689 | 0.651 | 0.728 |  |  |  |  |  |  |  |  |  |  |  |  |  | 
NCI-H727 |  |  |  |  |  | 0.307 | 0.495 | 0.296 | 0.291 | 0.283 | 0.474 | 0.301 | 0.29 | 0.401 | 0.314 | 0.945 | 0.763 | 1.09 | 0.77
A549 |  |  |  |  |  |  | 0.607 | 0.754 | 0.687 | 0.696 |  |  |  |  |  | 1.12 | 0.959 | 1.04 | 0.778
NCI-H522 | 0.902 | 1.25 | 1.24 | 1.07 | 1.11 |  |  |  |  |  | 0.856 | 0.781 | 0.816 | 0.892 | 1.01 |  |  |  | 
NCI-H441 | 0.255 | 0.282 | 0.299 | 0.274 | 0.271 | 0.533 | 0.656 | 0.543 | 0.507 | 0.518 | 0.64 | 0.618 | 0.693 | 0.677 | 0.486 |  |  |  | 
NCI-H2170 | 0.277 | 0.27 | 0.249 | 0.258 | 0.626 |  |  |  |  |  | 0.553 | 0.509 | 0.59 | 0.627 | 0.635 | 0.286 | 0.271 | 0.268 | 0.24
NCI-H1623 |  |  |  |  |  |  |  |  |  |  | 0.574 | 0.487 | 0.672 | 0.597 | 0.576 |  |  |  | 
SW 900 | 0.487 | 0.463 | 0.555 | 0.446 | 0.472 |  |  |  |  |  | 0.498 | 0.552 | 0.533 | 0.516 | 0.592 |  |  |  | 
IA-LM |  |  |  |  |  | 0.534 | 0.576 | 0.675 | 0.674 | 0.674 |  |  |  |  |  | 0.969 | 0.958 | 1.02 | 0.711
EBC-1 |  |  |  |  |  | 0.78 | 0.963 | 0.994 | 0.905 | 0.93 |  |  |  |  |  | 0.209 | 0.206 | 0.211 | 0.214
